Source: PMC8151276, “An Integrated Approach toward NanoBRET Tracers for Analysis of GPCR Ligand Engagement” (Molecules, 2021)
Blank lines part the entries; values can stand above or below the compound they belong to.

Tests used:
FZD4 = biological target: T1, FZD4 (Homo sapiens, UniProt Q9ULV1); assay: NanoBRET screen HiBiT-FZD4 in HEK293; format: binding
T1 construct: purchased Promega (in-house HiBiT-GPCR construct library, NanoBRET)
T1 sequence (Q9ULV1 37-537): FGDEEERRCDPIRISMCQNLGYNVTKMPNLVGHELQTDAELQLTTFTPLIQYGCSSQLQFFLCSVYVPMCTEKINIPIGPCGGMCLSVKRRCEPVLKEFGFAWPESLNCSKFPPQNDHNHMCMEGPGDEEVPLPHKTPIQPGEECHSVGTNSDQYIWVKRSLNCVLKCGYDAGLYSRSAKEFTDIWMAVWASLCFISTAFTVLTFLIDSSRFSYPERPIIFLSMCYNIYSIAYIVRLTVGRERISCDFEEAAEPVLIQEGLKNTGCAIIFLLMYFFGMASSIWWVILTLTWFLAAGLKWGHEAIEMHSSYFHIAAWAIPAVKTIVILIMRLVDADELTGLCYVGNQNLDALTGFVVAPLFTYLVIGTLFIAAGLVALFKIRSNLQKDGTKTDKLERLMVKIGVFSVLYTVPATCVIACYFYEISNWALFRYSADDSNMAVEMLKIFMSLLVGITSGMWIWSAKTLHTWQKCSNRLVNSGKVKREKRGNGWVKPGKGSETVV
Experimental: (§1) Each tracer candidate was screened across the entire library of HiBiT-GPCR constructs using NanoBRET as the detection modality. As depicted in Figure 4A, the specificity of interactions was evaluated through decrease in BRET due to competitive displacement of a bound tracer by excess parental compound. Each tracer was analyzed for binding to each HiBiT-GPCR fusion in the absence and in the presence of competing parental compound. Briefly, HEK293 cells were transfected with HiBiT-GPCR constructs diluted into promoterless DNA to reduce expression and maximize translocation to the cell surface. Each tracer candidate was then screened at concentrations of 1 μM and 0.1 μM across cells expressing these fusions. Cells were treated for 1.5 h with tracer either alone or in the presence of 20 μM competing parental compound (i.e., control). BRET was measured upon addition of purified LgBiT and subsequent complementation with HiBiT genetically fused to a GPCR. The specificity of interactions was assessed through a decrease in BRET signal due to competitive displacement of the bound tracer. To further gauge the robustness of these interactions, the fold response over the control (i.e., BRETtracer/BRETcontrol) was calculated. We chose a 1.5-fold response, which translates to ≥7-fold signal over noise as the minimal threshold required to score an interaction as positive. […]. Below we highlight the screening results obtained for our exemplary fluorescent tracers based on Clozapine, Amitriptyline and AZD1283.
(§2) HiBiT-GPCR DNA constructs were diluted in 10 mM Tris pH 8 to a final concentration of 0.01 μg/μL, arrayed in 96-well plates and stored at −20 °C. For transfection, HEK293 cells were suspended in Opti-MEM (without phenol red) supplemented with 2% fetal bovine serum (Seradigm) and 100 units/mL penicillin–streptomycin (Gibco) at a final concentration of 220,000 cells/mL and dispensed into white 96-well plates at 90 μL/well. Subsequent transfections and screens were carried using an Agilent Bravo Automated Liquid Handling Platform. First, the 96-well HiBiT DNA arrays were diluted 25-fold in Opti-MEM (without serum or phenol red) to a final concentration of 0.0004 μg/μL and 20 μL of the diluted DNAs were transferred into new 96-well plates. Next, promoterless carrier DNA (1 μg/μL) was diluted 25-fold (0.04 μg/μL) and then dispensed into the diluted arrays at 20 μL/well. Following brief mixing, Viafect transfection reagent (Promega) diluted 16-fold into Opti-MEM was dispensed into the plates at 40 μL/well. After mixing by pipetting, plates were incubated for 10 min on the pipetting station deck. The DNA-transfection reagent complexes were then added to plates containing cells. To facilitate the screen, 10 μL of DNA-transfection reagent complexes were added in duplicates to the top 4 and bottom 4 rows, resulting in two identical 48-well arrays per plate. Plates with transfected cells were incubated for 18–20 h at 37 °C/5% CO2. A screen of each tracer across the entire library using two different concentrations requires duplicate plates of transfected cells. Depending on the number of tracers being screened, transfections can be scaled up using the same ratios. The next day, for each tracer, four 20× screening solutions in tracer dilution buffer (Promega) were prepared: two duplicates at final concentration of 20 μM and two duplicates at a final concentration of 2 μM. A competing unmodified compound was added to one of each duplicate at a final concentration of 400 μM. The four resulting solutions were diluted 4-fold in Opti-MEM without serum or phenol red to generate 5× solutions (5 µM and 0.5 µM tracer +/− 100 μM competing compound). To screen the library, a BioTek MultiFlo FX liquid dispenser was used to dispense 22.5 µL of tracer solution to the top 4 rows and 22.5 µL tracer + competing compound solution to the 4 bottom rows. Plates were briefly mixed on an orbital shaker and incubated for 1.5 h at room temperature. […]

HRH4 = biological target: T2, HRH4 (Homo sapiens, UniProt Q9H3N8); assay: NanoBRET screen HiBiT-HRH4 in HEK293; format: binding
T2 construct: purchased Promega (in-house HiBiT-GPCR construct library, NanoBRET)
Experimental: as §1, §2

[1] = tracer at 0.1μM, listed as amitriptyline-b-2-NB590
[2] = tracer at 1μM, listed as amitriptyline-b-2-NB590

SMILES: CCOC(=O)c1cc(C#N)c(N2CCC(C(=O)NS(=O)(=O)Cc3ccccc3/C=C/C(=O)NCCNC(=O)CCc3ccc4n3[B-](F)(F)[N+]3=C(c5ccc[nH]5)C=CC3=C4)CC2)nc1C [AZD1283-1-NB590]
NanoBRET Fold Response (FZD4; FZD4, 0.1μM): 1.03
NanoBRET Fold Response (FZD4; FZD4, 1μM): 1.03
NanoBRET Fold Response (HRH4; HRH4, 0.1μM): 1.16
NanoBRET Fold Response (HRH4; HRH4, 1μM): 1.10

SMILES: CN(C)CCC=C1c2ccccc2CCc2ccc(C(=O)NCCNC(=O)CCOCCOCCOCCOCCNC(=O)CCc3ccc4n3[B-](F)(F)[N+]3=C(c5ccc[nH]5)C=CC3=C4)cc21 [Amitriptyline-a-2-NB590]
NanoBRET Fold Response (FZD4; tracer at 0.1μM): 1.01
NanoBRET Fold Response (FZD4; tracer at 1μM): 1.01
NanoBRET Fold Response (HRH4; tracer at 0.1μM): 1.23
NanoBRET Fold Response (HRH4; tracer at 1μM): 1.04

SMILES: CN(C)CCC=C1c2ccccc2CCc2ccc(C(=O)NCCNC(=O)CCOCCOCCOCCOCCNC(=O)CCc3ccc4n3[B-](F)(F)[N+]3=C(c5ccc[nH]5)C=CC3=C4)cc21 [Amitriptyline-b-2-NB590]
NanoBRET Fold Response (FZD4; [1]): 1.12
NanoBRET Fold Response (FZD4; [2]): 1.19
NanoBRET Fold Response (HRH4; [1]): 0.97
NanoBRET Fold Response (HRH4; [2]): 1.13

SMILES: CN(CCC=C1c2ccccc2CCc2ccccc21)C(=O)CCOCCOCCOCCOCCNC(=O)CCc1ccc2n1[B-](F)(F)[N+]1=C(c3ccc[nH]3)C=CC1=C2 [Amitriptyline-e-2-NB590]
NanoBRET Fold Response (FZD4; tracer at 1μM): 0.97
NanoBRET Fold Response (HRH4; tracer at 1μM): 0.92

SMILES: CN1CCN(C2=Nc3cc(Cl)ccc3Nc3ccc(CNC(=O)CCOCCOCCOCCOCCNC(=O)CCc4ccc5n4[B-](F)(F)[N+]4=C(c6ccc[nH]6)C=CC4=C5)cc32)CC1 [Clozapine-b-2-NB590]
NanoBRET Fold Response (FZD4; FZD4, 0.1μM tracer): 0.99
NanoBRET Fold Response (FZD4; FZD4, 1μM tracer): 1.03
NanoBRET Fold Response (HRH4; HRH4, 0.1μM tracer): 1.01
NanoBRET Fold Response (HRH4; HRH4, 1μM tracer): 0.81

Now from value to compound:

NanoBRET Fold Response (FZD4; FZD4, tracer 0.1μM): 0.98
NanoBRET Fold Response (FZD4; FZD4, tracer 1μM): 1.07
NanoBRET Fold Response (HRH4; HRH4, tracer 0.1μM): 0.91
NanoBRET Fold Response (HRH4; HRH4, tracer 1μM): 1.02
SMILES: N#CN=C(NCCCOc1cccc(CN2CCCCC2)c1)NCCNC(=O)CCOCCOCCOCCOCCNC(=O)CCc1ccc2n1[B-](F)(F)[N+]1=C(c3ccc[nH]3)C=CC1=C2 [Aminopotentidine-2-NB590]

NanoBRET Fold Response (FZD4; 0.1μM tracer): 0.91
NanoBRET Fold Response (FZD4; 1μM tracer): 0.91
NanoBRET Fold Response (HRH4; 0.1μM tracer): 0.92
NanoBRET Fold Response (HRH4; 1μM tracer): 0.92
SMILES: COc1ccc2c(n1)c(CCNC(C)=O)cn2CCNC(=O)CCc1ccc2n1[B-](F)(F)[N+]1=C(c3ccc[nH]3)C=CC1=C2 [Azamelatonin-1-NB590]

NanoBRET Fold Response (FZD4; 0.1μM tracer): 0.89
NanoBRET Fold Response (FZD4; 1μM tracer): 1.08
NanoBRET Fold Response (HRH4; 0.1μM tracer): 0.80
NanoBRET Fold Response (HRH4; 1μM tracer): 1.14
SMILES: COc1ccc2[nH]c(-c3ccc(CNC(=O)CCOCCOCCOCCOCCNC(=O)CCc4ccc5n4[B-](F)(F)[N+]4=C(c6ccc[nH]6)C=CC4=C5)cc3)c(CCNC(C)=O)c2n1 [AzomelatoninICO9-2-NB590]

NanoBRET Fold Response (FZD4; FZD4, 0.1μM tracer): 1.20
NanoBRET Fold Response (FZD4; FZD4, 1μM tracer): 0.95
NanoBRET Fold Response (HRH4; HRH4, 0.1μM tracer): 1.00
NanoBRET Fold Response (HRH4; HRH4, 1μM tracer): 1.07
SMILES: O=C(CCOCCOCCOCCOCCNC(=O)CCc1ccc2n1[B-](F)(F)[N+]1=C(c3ccc[nH]3)C=CC1=C2)NCCCN1CCN(C2=Nc3cc(Cl)ccc3Nc3ccccc32)CC1 [Clozapine-a-2-NB590]
